Source: patent US20230040182A1, “ARYL HETEROBICYCLIC COMPOUNDS AS Kv1.3 POTASSIUM SHAKER CHANNEL BLOCKERS” (priority 2019, published 2023)

target: T1, Kv1.3 potassium channel (Homo sapiens, UniProt P22001); experiment: Kv1.3 potassium channel blocker activity, automated whole-cell patch clamp (Patchliner); type: cell-based; conditions: CHO-K1 cells stably expressing Kv1.3; whole-cell current, Hill fit
T1 construct: expressed in transfected cells
Procedure: Example 9. Evaluation of Kv1.3 Potassium Channel Blocker Activities
This assay is used to evaluate the disclosed compounds' activities as Kv1.3 potassium channel blockers.
CHO-K1 cells stably expressing Kv1.3 were grown in DMEM containing 10% heat-inactivated FBS, 1 mM Sodium Pyruvate, 2 mM L-Glutamine and G418 (500 μg/ml). Cells were grown in culture flasks at 37° C. in a […] incubator.
(§1) The cells were bathed in an extracellular solution containing 140 mM NaCl, 4 mM KCl, 2 mM CaCl2, 1 mM MgCl2, 5 mM Glucose, 10 mM HEPES; pH adjusted to 7.4 with NaOH; 295-305 mOsm. The internal solution contained 50 mM KCl, 10 mM NaCl, 60 mM KF, 20 mM EGTA, 10 mM HEPES; pH adjusted to 7.2 with KOH; 285 mOsm. All compounds were dissolved in DMSO at 30 mM. Compound stock solutions were freshly diluted with external solution to concentrations of 30 nM, 100 nM, 300 nM, 1 μM, 3 μM, 10 μM, 30 μM and 100 μM. The highest content of DMSO (0.3%) was present in 100 μM.
The currents were evoked by applying 100 ms depolarizing pulses from −90 mV (holding potential) to +40 mV were applied with 0.1 Hz frequency. Control (compound-free) and compound pulse trains for each compound concentration applied contained 20 pulses. 10-second breaks were used between pulse trains (see Table A below).
Whole-cell current recordings and compound application were enabled by means of an automated patch clamp platform Patchliner (Nanion Technologies GmbH). EPC 10 patch clamp amplifier (HEKA Elektronik Dr. Schulze GmbH) along with Patchmaster software (HEKA Elektronik Dr. Schulze GmbH) was used for data acquisition. Data were sampled at 10 kHz without filtering. Passive leak currents were subtracted online using a P/4 procedure (HEKA Elektronik Dr. Schulze GmbH). Increasing compound concentrations were applied consecutively to the same cell without washouts in between. Total compound incubation time before the next pulse train was not longer than 10 seconds. Peak current inhibition was observed during compound equilibration.
(§2) AUC and peak values were obtained with Patchmaster (HEKA Elektronik Dr. Schulze GmbH). To determine IC50, the last single pulse in the pulse train corresponding to a given compound concentration was used. Obtained AUC and peak values in the presence of compound were normalized to control values in the absence of compound. Using Origin (OridinLab), IC50 was derived from data fit to Hill equation: Icompound/Icontrol=(100−A)/(1+([compound]/IC50)nH)+A, where IC50 value is the concentration at which current inhibition is half-maximal, [compound] is the applied compound concentration, A is the fraction of current that is not blocked and nH is the Hill coefficient.

T1 sequence (P22001 whole entry): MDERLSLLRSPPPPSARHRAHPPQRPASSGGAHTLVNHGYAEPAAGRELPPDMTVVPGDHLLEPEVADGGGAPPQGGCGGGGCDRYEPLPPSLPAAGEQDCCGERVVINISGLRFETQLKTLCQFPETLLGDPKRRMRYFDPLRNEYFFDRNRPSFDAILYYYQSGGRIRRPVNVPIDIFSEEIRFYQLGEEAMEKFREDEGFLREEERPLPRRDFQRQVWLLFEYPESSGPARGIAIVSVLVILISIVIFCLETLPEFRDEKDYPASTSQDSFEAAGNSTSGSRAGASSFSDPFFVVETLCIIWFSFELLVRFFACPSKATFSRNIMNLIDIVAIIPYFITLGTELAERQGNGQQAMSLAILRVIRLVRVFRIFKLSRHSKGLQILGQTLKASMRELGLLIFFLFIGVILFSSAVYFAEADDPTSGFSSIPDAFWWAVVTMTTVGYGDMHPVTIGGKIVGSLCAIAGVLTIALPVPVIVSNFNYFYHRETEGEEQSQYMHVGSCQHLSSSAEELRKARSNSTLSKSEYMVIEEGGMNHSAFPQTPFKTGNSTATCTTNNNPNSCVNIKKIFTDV

| SMILES | IC50 |
| --- | --- |
| O=C1[C@@H]2C[C@H](c3c(O)ccc(Cl)c3Cl)CCN2C(=O)CN1CCO (relative stereo) [Compound 7, (8R,9aS)-rel-8-(2,3-dichloro-6-hydroxyphenyl)-2-(2-hydroxyethyl)hexahydro-4H-pyrido[1,2-a]pyrazine-1,4(6H)-dione] | < 1 µM |
| O=C1[C@H]2C[C@H](c3c(O)ccc(Cl)c3Cl)CCN2C(=O)CN1CCO (relative stereo) [Compound 18, (8R,9aR)-rel-8-(2,3-dichloro-6-hydroxyphenyl)-2-(2-hydroxyethyl)-hexahydropyrido[1,2-a]pyrazine-1,4-dione] | < 1 µM |
| O=C1[C@@H]2C[C@H](c3c(O)ccc(Cl)c3Cl)CCN2C(=O)CN1C1CC(O)C1 (relative stereo) [Compound 20, (8R,9aS)-rel-8-(2,3-dichloro-6-hydroxyphenyl)-2-(3-hydroxycyclobutyl)-hexahydropyrido[1,2-a]pyrazine-1,4-dione] | < 1 µM |
| Cc1cc(O)c([C@@H]2CCN3C(=O)[C@@H](CO)NC(=O)[C@@H]3C2)c(Cl)c1Cl (relative stereo) [Compound 22, (8R,9aS)-rel-8-(2,3-dichloro-6-hydroxy-4-methylphenyl)-3-((3R)-hydroxymethyl)-hexahydro-2H-pyrido[1,2-a]pyrazine-1,4-dione] | < 1 µM |
| CC(C)[C@@H](O)[C@@H]1NC(=O)[C@@H]2C[C@H](c3c(O)ccc(Cl)c3Cl)CCN2C1=O [Compound 42, (3S,8R,9aS)-8-(2,3-dichloro-6-hydroxyphenyl)-3-[(1R)-1-hydroxy-2-methylpropyl]-hexahydro-2H-pyrido[1,2-a]pyrazine-1,4-dione] | < 1 µM |
| O=C1[C@@H]2C[C@@H](O)CN2C(=O)[C@@H]2C[C@H](c3c(O)ccc(Cl)c3Cl)CCN12 [Compound 43, (2R,5aS,7R,11aS)-7-(2,3-dichloro-6-hydroxyphenyl)-2-hydroxyhexahydro-1H-pyrido[1,2-a]pyrrolo[1,2-d]pyrazine-5,11(5aH,11aH)-dione] | < 10 µM |
| CC1(C)NC(=O)C2CC(c3c(O)ccc(Cl)c3Cl)CCN2C1=O (stereo not drawn) [Compound 47, 8-(2,3-dichloro-6-hydroxyphenyl)-3,3-dimethyl-octahydro-1H-pyrido[1,2-a]pyrazine-1,4-dione] | < 10 µM |
| CC(C)[C@H]1NC(=O)[C@H]2C[C@@H](c3c(O)ccc(Cl)c3Cl)CCN2C1=O [Compound 48, (8S,9aR)-8-(2,3-dichloro-6-hydroxyphenyl)-3-(3R)-isopropyl-hexahydro-2H-pyrido[1,2-a]pyrazine-1,4-dione] | < 10 µM |
| O=C1NCC(=O)N2CC[C@H](c3c(O)ccc(Cl)c3Cl)C[C@H]12 [Compound 56, (8S,9aR)-8-(2,3-dichloro-6-hydroxyphenyl)hexahydro-4H-pyrido[1,2-a]pyrazine-1,4(6H)-dione] | < 10 µM |
| O=C1[C@H]2C[C@@H](O)CN2C(=O)[C@H]2C[C@@H](c3c(O)ccc(Cl)c3Cl)CCN12 [Compound 59, (2R,5aR,7S,11aR)-7-(2,3-dichloro-6-hydroxyphenyl)-2-hydroxyhexahydro-1H-pyrido[1,2-a]pyrrolo[1,2-d]pyrazine-5,11(5aH,11aH)-dione] | < 10 µM |
| CC(C)[C@H](O)[C@H]1NC(=O)[C@H]2C[C@@H](c3c(O)ccc(Cl)c3Cl)CCN2C1=O [Compound 61, (3R,8S,9aR)-8-(2,3-dichloro-6-hydroxyphenyl)-3-[(1S)-1-hydroxy-2-methylpropyl]-hexahydro-2H-pyrido[1,2-a]pyrazine-1,4-dione] | < 10 µM |
| O=C1N[C@H](CO)C(=O)N2CC[C@H](c3c(O)cc(Cl)c(Cl)c3Cl)C[C@H]12 [Compound 66, (8S,9aR)3-((3R)-hydroxymethyl)-8-(2,3,4-trichloro-6-hydroxyphenyl)-hexahydro-2H-pyrido[1,2-a]pyrazine-1,4-dione] | < 10 µM |

Second part, the compound after the results:

| IC50 | SMILES |
| --- | --- |
| < 10 µM | O=C1N[C@@H](CO)C(=O)N2CC[C@H](c3c(O)ccc(Cl)c3Cl)C[C@H]12 [Compound 46, (3S,8S,9aR)-8-(2,3-dichloro-6-hydroxyphenyl)-3-(hydroxymethyl)hexahydro-4H-pyrido[1,2-a]pyrazine-1,4(6H)-dione] |
| < 30 µM | CC[C@H]1NC(=O)[C@@H]2C[C@H](c3c(O)ccc(Cl)c3Cl)CCN2C1=O [Compound 51, (8R,9aS)-8-(2,3-dichloro-6-hydroxyphenyl)-3-(3R)-ethyl-hexahydro-2H-pyrido[1,2-a]pyrazine-1,4-dione] |
| < 1 µM | CC(C)[C@H]1NC(=O)[C@@H]2C[C@H](c3c(O)ccc(Cl)c3Cl)CCN2C1=O [Compound 54, (8R,9aS)-8-(2,3-dichloro-6-hydroxyphenyl)-3-(3R)-isopropyl-hexahydro-2H-pyrido[1,2-a]pyrazine-1,4-dione] |
| < 10 µM | O=C1N[C@H](CO)C(=O)N2CC[C@H](c3c(O)ccc(Cl)c3Cl)C[C@H]12 [Compound 57, (3R,8S,9aR)-8-(2,3-dichloro-6-hydroxyphenyl)-3-(hydroxymethyl)hexahydro-4H-pyrido[1,2-a]pyrazine-1,4(6H)-dione] |
| < 10 µM | C[C@H]1NC(=O)[C@H]2C[C@@H](c3c(O)ccc(Cl)c3Cl)CCN2C1=O [Compound 62, (3R,8S,9aR)-8-(2,3-dichloro-6-hydroxyphenyl)-3-methyl-hexahydro-2H-pyrido[1,2-a]pyrazine-1,4-dione] |
| < 30 µM | O=C1N[C@H](CCO)C(=O)N2CC[C@H](c3c(O)ccc(Cl)c3Cl)C[C@H]12 [Compound 63, (3R,8S,9aR)-8-(2,3-dichloro-6-hydroxyphenyl)-3-(2-hydroxyethyl)-hexahydro-2H-pyrido[1,2-a]pyrazine-1,4-dione] |
| < 10 µM | C[C@H](O)[C@H]1NC(=O)[C@H]2C[C@@H](c3c(O)ccc(Cl)c3Cl)CCN2C1=O [Compound 67, (3R,8S,9aR)-8-(2,3-dichloro-6-hydroxyphenyl)-3-[(1S)-1-hydroxyethyl]-hexahydro-2H-pyrido[1,2-a]pyrazine-1,4-dione] |
| < 1 µM | O=C1N[C@H](CCO)C(=O)N2CC[C@@H](c3c(O)ccc(Cl)c3Cl)C[C@@H]12 [Compound 70, (3R,8R,9aS)-8-(2,3-dichloro-6-hydroxyphenyl)-3-(2-hydroxyethyl)-hexahydro-2H-pyrido[1,2-a]pyrazine-1,4-dione] |

target: T2, hERG channel (Homo sapiens, UniProt Q12809); experiment: hERG electrophysiology, automated whole-cell patch clamp (Patchliner); type: cell-based; conditions: CHO-K1 cells stably expressing hERG; whole-cell current, Hill fit
T2 construct: expressed in transfected cells
Procedure: Example 10. Evaluation of hERG Activities
This assay is used to evaluate the disclosed compounds' inhibition activities against the hERG channel.
CHO-K1 cells stably expressing hERG were grown in Ham's F-12 Medium with Glutamine containing 10% heat-inactivated FBS, 1% Penicillin/Streptomycin, Hygromycin (100 μg/ml) and G418 (100 μg/ml). Cells were grown in culture flasks at 37° C. in a 5% CO2-humidified incubator.
as §1, with “CaCl2),” for “CaCl2,”
The voltage protocol (see Table B) was designed to simulate voltage changes during a cardiac action potential with a 300 ms depolarization to +20 mV (analogous to the plateau phase of the cardiac action potential), a repolarization for 300 ms to −50 mV (inducing a tail current) and a final step to the holding potential of −80 mV. The pulse frequency was 0.3 Hz. Control (compound-free) and compound pulse trains for each compound concentration applied contained 70 pulses.
Whole-cell current recordings and compound application were enabled by means of an automated patch clamp platform Patchliner (Nanion). EPC 10 patch clamp amplifier (HEKA) along with Patchmaster software (HEKA Elektronik Dr. Schulze GmbH) was used for data acquisition. Data were sampled at 10 kHz without filtering. Increasing compound concentrations were applied consecutively to the same cell without washouts in between.
as §2, with “PEAK” for “peak”, “IC50” for “IC50,”, “IC50” for “IC50 value”

T2 sequence (Q12809 whole entry): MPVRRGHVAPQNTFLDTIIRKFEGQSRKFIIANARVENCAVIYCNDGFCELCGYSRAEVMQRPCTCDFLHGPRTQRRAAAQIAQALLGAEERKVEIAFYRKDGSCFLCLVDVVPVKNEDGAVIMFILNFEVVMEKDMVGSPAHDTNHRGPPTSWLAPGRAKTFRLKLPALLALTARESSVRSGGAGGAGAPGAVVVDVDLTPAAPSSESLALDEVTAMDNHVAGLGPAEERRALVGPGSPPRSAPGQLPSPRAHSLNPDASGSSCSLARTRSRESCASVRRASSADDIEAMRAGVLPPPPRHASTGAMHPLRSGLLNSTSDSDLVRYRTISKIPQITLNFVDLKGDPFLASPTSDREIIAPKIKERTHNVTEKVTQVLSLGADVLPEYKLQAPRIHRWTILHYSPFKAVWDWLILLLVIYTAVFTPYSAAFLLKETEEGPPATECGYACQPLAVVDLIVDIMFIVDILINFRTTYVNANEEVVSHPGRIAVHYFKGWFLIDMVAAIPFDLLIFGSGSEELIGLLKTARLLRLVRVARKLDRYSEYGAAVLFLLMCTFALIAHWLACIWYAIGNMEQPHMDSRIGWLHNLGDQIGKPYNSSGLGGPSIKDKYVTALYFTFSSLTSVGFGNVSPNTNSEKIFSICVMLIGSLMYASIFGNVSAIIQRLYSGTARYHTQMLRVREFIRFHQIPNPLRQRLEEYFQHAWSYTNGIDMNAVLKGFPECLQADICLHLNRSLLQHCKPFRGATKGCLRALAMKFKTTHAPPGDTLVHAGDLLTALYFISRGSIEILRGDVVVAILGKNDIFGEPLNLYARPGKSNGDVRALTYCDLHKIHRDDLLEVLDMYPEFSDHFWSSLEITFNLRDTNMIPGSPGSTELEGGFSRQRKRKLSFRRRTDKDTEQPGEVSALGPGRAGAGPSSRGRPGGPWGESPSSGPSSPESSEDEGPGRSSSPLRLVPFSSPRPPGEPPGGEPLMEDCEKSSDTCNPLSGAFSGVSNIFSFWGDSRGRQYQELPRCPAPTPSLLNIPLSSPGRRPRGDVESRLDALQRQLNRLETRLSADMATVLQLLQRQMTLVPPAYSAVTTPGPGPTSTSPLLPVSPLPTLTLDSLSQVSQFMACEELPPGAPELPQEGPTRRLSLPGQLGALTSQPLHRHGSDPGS

| SMILES | IC50 |
| --- | --- |
| O=C1[C@@H]2C[C@H](c3c(O)ccc(Cl)c3Cl)CCN2C(=O)CN1CCO (relative stereo) [Compound 7, (8R,9aS)-rel-8-(2,3-dichloro-6-hydroxyphenyl)-2-(2-hydroxyethyl)hexahydro-4H-pyrido[1,2-a]pyrazine-1,4(6H)-dione] | > 30 µM |
| O=C1[C@H]2C[C@H](c3c(O)ccc(Cl)c3Cl)CCN2C(=O)CN1CCO (relative stereo) [Compound 18, (8R,9aR)-rel-8-(2,3-dichloro-6-hydroxyphenyl)-2-(2-hydroxyethyl)-hexahydropyrido[1,2-a]pyrazine-1,4-dione] | > 30 µM |
| O=C1[C@@H]2C[C@H](c3c(O)ccc(Cl)c3Cl)CCN2C(=O)CN1C1CC(O)C1 (relative stereo) [Compound 20, (8R,9aS)-rel-8-(2,3-dichloro-6-hydroxyphenyl)-2-(3-hydroxycyclobutyl)-hexahydropyrido[1,2-a]pyrazine-1,4-dione] | > 30 µM |
| Cc1cc(O)c([C@@H]2CCN3C(=O)[C@@H](CO)NC(=O)[C@@H]3C2)c(Cl)c1Cl (relative stereo) [Compound 22, (8R,9aS)-rel-8-(2,3-dichloro-6-hydroxy-4-methylphenyl)-3-((3R)-hydroxymethyl)-hexahydro-2H-pyrido[1,2-a]pyrazine-1,4-dione] | > 30 µM |
